In PMC9788418, “Design, Synthesis and Biological Evaluation of Syn and Anti-like Double Warhead Quinolinones Bearing Dihydroxy Naphthalene Moiety as Epidermal Growth Factor Receptor Inhibitors with Potential Apoptotic Antiproliferative Action” (Molecules, 2022):
Several values for one entry are separate records, joined by “and”; a condition that tells them apart may be missing. Identical values can stand only once.

How the values were obtained:
[1] = tested on: Panc-1 (pancreas cancer cell line); experiment: Antiproliferative assay; type: cell-based, human; conditions: Homo sapiens, PANC-1; read-out: Antiproliferative Activity IC50 ± SEM, Panc-1
Protocol: 4.2. Biological evaluation
4.2.1. Cytotoxic activity using MTT Assay and evaluation of IC50 […]
cells were seeded at a density of 10^4 cells mL-1 in flat-bottomed culture plates containing 96 wells each. After 24 h, medium was removed from the plates and the compounds in (in 0.1% DMSO) were added (in 200 μL medium to yield a final concentration of 0.1% v/v) to the wells of plates. A single […]
incubation, medium was removed completely from the plates followed by addition of MTT (0.4 mg/mL in medium) to each well and subsequent incubation of plates for 3h. MTT (along with the medium) was removed and DMSO (150μL) was added to each well of the culture plates, followed by vortexing and subsequent measurement of absorbance (at 540 nm) using microplate reader. The data […]
4.2.1.2. Assay for antiproliferative effect
To explore the antiproliferative potential of compounds MTT assay was performed according to previously reported procedure using different cell lines to explore the antiproliferative potential of compounds propidium iodide fluorescence assay was performed using different cell lines. To calculate the total nuclear DNA, a fluorescent dye (propidium iodide, PI) is used which can attach to the DNA, thus offering a quick and precise technique. PI cannot pass through the cell membrane and its signal intensity can be considered as directly proportional to quantity of cellular DNA. Cells whose cell membranes are damaged or have changed permeability are counted as dead ones. The assay was performed by seeding the cells of different cell lines at a density of 3000-7500 cells/well (in 200µl […]
atmospheric conditions. The medium was removed; the compounds were added to the plates at 10 µM concentrations (in 0.1% DMSO) in triplicates, followed by incubation for 48 h. DMSO (0.1%) was used as control. After incubation, medium was removed followed by the addition of PI (25 µl, 50µg/mL in water/medium) to each well of the plates. At -80 °C, the plates were allowed to freeze for 24 h, followed by thawing at 25 °C. A fluorometer (Polar-Star BMG Tech) was used to record the readings at excitation and emission wavelengths of 530 and 620 nm for each well. The percentage cytotoxicity of compounds was calculated using the following formula:
Where ATC= Absorbance of treated cells and AC= Absorbance of control. […]
positive control in the assay.

caspase-3 = experiment: Caspase-3 activation assay; conditions: for Caspase-3 Conc: A-549; for Caspase-3 Fold Change: A-549, vs control untreated cells
Protocol: record autophosphorylation level, EGFR kinase assay was carried out based on DELFIA/Time-
Resolved Fluorometry. The compounds were first dissolved in DMSO absolute, after dilution to
Each compound (10 µL) was incubated
with recombinant enzyme (10 µL, 5 ng for EGFR, 1:80 dilution in 100 mM HEPES) for 10 min at
25 °C, after the addition of 5X buffer (10 µL, containing 2 mM MnCl2, 100 µM Na3VO4, 20 mM HEPES and 1 mM DTT) and ATP-MgCl2 (20 µL, containing 0.1 mM ATP and 50 mM MgCl2) and
incubation for 1h. The negative and positive controls were included in each plate by the incubation
of enzyme either with or without ATP-MgCl2. The liquid was removed after incubation and the plates
were washed thrice using wash buffer. Europium-tagged antiphosphotyrosine antibody (75 µL, 400
ng) was added to each well followed by incubation of 1h and then washing of the plates using buffer.
The enhancement solution was added to each well and the signal was recorded at excitation and
The autophosphorylation percentage inhibition by compounds was calculated using the following equation:

melting point	IC50 [1]	SMILES	Caspase-3 Conc (caspase-3)	Caspase-3 Fold Change (caspase-3)
> 360 °C	0.036 ± 0.003 µM	O=c1cc(-n2cc(COc3cccc4cccc(OCc5cn(-c6cc(=O)[nH]c7ccccc67)nn5)c34)nn2)c2ccccc2[nH]1 [Compound 4a, 4,4′-(((naphthalene-1,8-diylbis(oxy))bis(methylene))bis(1H-1,2,3-triazole-4,1-diyl))-bis-(quinolin-2(1H)-one)]	587.50 ± 4.50 pg/mL	9 and 8.95
–	0.046 ± 0.004 µM	Cc1ccc2[nH]c(=O)cc(-n3cc(COc4cccc5cccc(OCc6cn(-c7cc(=O)[nH]c8ccc(C)cc78)nn6)c45)nn3)c2c1 [Compound 4b, 4,4′-(((naphthalene-1,8-diylbis(oxy))bis(methylene))bis(1H-1,2,3-triazole-4,1-diyl))-bis(6-methylquinolin-2(1H)-one)]	535.50 ± 4.50 pg/mL	8 and 8.15
